Data set [1] concerns animal models of Alzheimer's disease. The note with it: background statement with literature references; cited from earlier work.
Data set [2] is described as follows: Exposure of form A1 to various humidity conditions (TGA and crystal form). Format: physicochemical. On the procedure:
(§1) X-Ray powder diffraction data were obtained by a SCINTAG powder X-Ray diffractometer model X'TRA equipped with a solid state detector. Copper radiation of 1.5418 Å was used. A round aluminum sample holder with round zero background quartz plate, with cavity of 25 (diameter)*0.5 (depth) mm was used.
TGA analysis was done using a Mettler M3 meter. The weight of the samples was about 10 mg. The samples were scanned at a rate of 10° C./min from 25° C. to 200° C. The oven was constantly purged with nitrogen gas at a flow rate of 40 ml/min. Standard 70 μl alumina crucibles covered by lids with 1 hole were used.
Ladostigil tartrate form A1 was exposed to various humidity conditions at room temperature for 14 days. TGA was performed, and crystal form was analyzed.

Data set [3] is described as follows: Effect of micronization, pressing and grinding (XRD). The data set is classed as physicochemical. The conditions noted are these: pressing 1 minute at 100 metric tons, by XRD. As to the method: as §1
The effects of micronization, pressing (1 minute at 100 metric tons) and grinding were determined by XRD and the following results were obtained: […]

[4] abbreviates: RH 100%, room temperature, 14 days.

As for `C#CCN[C@@H]1CCc2ccc(OC(=O)N(C)CC)cc21` [Ladostigil, ethyl-methyl-carbamic acid (R)-3-prop-2-ynylamino-indan-5-yl ester], the “efficacy in animal models of Alzheimer's disease” value in data set [1] was “effective”.
With “carbamic acid, ethylmethyl-, (3R)-2,3-dihydro-3-(2-propynylamino)-1H-inden-5-yl ester, (2R,3R)-2,3-dihydroxybutanedioate (2:1) [Ladostigil tartrate form A1]”, the TGA in data set [2] (RH 60%, room temperature, 14 days) stood at 0.2; in data set [2] (RH 80%, room temperature, 14 days), 0.1; in data set [2] (setting [4]) it was 0.1. Further, the Resulting form entry in data set [2] (setting [4]) is “transformed to a mixture of Form A and A1”. In data set [2] (after exposure to 100% RH for 14 days), the water content change result is recorded as “did not change significantly”. In addition, the hygroscopicity result in data set [2] (concluded from humidity exposure results) is “neither Form A nor Form A1 is hygroscopic”. For the same compound, the crystallinity after pressing entry in data set [3] was “lose some extent of crystallinity”.

The record behind these values is patent publication US20070093549A1, “Methods for preparation of ladostigil tartrate crystalline form A1” (priority 2005, published 2007).
